Source: ChEMBL document CHEMBL1139084, “N-Alkyl-N-alkyloxycarbonylaminomethyl (NANAOCAM) prodrugs of carboxylic acid containing drugs” (Bioorg Med Chem Lett, 2007)
≈ marks a conversion by molar mass, not a printed value.

Legend:
[1] = Stability in aqueous buffer assessed as hydrolysis half life; format: physicochemical
[2] = Dissociation constant, pKa of the compound; format: physicochemical
[3] = Permeability across hairless mouse skin from isopropyl myristate; format: ADME, tissue-based, Zone of skin; settings: read-out: permeability (converted)
[4] = Solubility in isopropyl myristate; format: physicochemical
Zone of skin = assay: Drug level in mouse skin; format: ADME, tissue-based; settings: in vitro
[5] = Partition coefficient, log K between isopropyl myristate and pH 4.0 buffer; format: ADME; settings: isopropyl myristate/pH 4.0 buffer

half-life [1] | pKa [2] | Papp [3] | solubility [4] | Drug uptake (Zone of skin) | log K [5] | Compound
156 min | 4.2 | – | – | – | – | CCOC(=O)c1ccc(N(COC(=O)[C@@H](C)c2ccc3cc(OC)ccc3c2)C(=O)OC)cc1
3.65 min | 4.5 | – | – | – | – | COC(=O)N(C)COC(=O)Cc1c(C)n(C(=O)c2ccc(Cl)cc2)c2ccc(OC)cc12
2 min | 4.2 | 5.28 ×10⁻⁶ cm/s | 5.16 mM (≈ 1710 µg/mL) | 4.21 µmol | 1.67 | COC(=O)N(C)COC(=O)[C@@H](C)c1ccc2cc(OC)ccc2c1

Further lines, the molecule ahead of its results:

Compound | half-life [1] | pKa [2] | Papp [3] | solubility [4] | Drug uptake (Zone of skin) | log K [5]
COC(=O)N(COC(=O)[C@@H](C)c1ccc2cc(OC)ccc2c1)c1ccc(OC)cc1 | 49.8 min | 4.2 | – | – | – | –
COC(=O)N(C)COC(=O)C(C)c1ccc(CC(C)C)cc1 (centres undefined) | 4.11 min | 4.41 | – | – | – | –
CCn1cc(C(=O)OCN(C)C(=O)OC)c(=O)c2ccc(C)nc21 | 40 min | 6 | – | – | – | –
COC(=O)N(COC(=O)[C@@H](C)c1ccc2cc(OC)ccc2c1)c1ccccc1 | 120 min | 4.2 | – | – | – | –
COc1ccc2cc([C@H](C)C(=O)O)ccc2c1 [NAPROXEN] | – | – | – | – | 2.71 µmol | –
